Like-named read-outs stand apart in the source and are kept apart here.

Experimental findings from patent US10799478B2, “Treatment of androgen deprivation therapy associated symptoms” (priority 2014, dated 2020) are described below.

Assay [1] has as its system LnCAP human prostate cancer cells. The assay is described as follows: LnCAP Gene Expression. It is filed as cell-based. Particulars: Homo sapiens, LNCaP.
Another assay concerns ORX Wistar male rats. The assay can be described thus: In Vivo Study to Explore Direct Antagonist Effect of Example 1 in the Presence of TE. Set-up: species or system rat. On the procedure: Route of administration for all groups except TE is oral. TE is administered subcutaneously. At the end of 8 weeks of daily dosing, rats are euthanized, weighed & tissue harvested. Levator ani, prostates, and seminal vesicles are collected from each animal. Results are plotted as means±SE.

The next assay concerns Orx rats. The assay is described as follows: Orchidectomized Rat Assay. The assay is classed as in vivo. The conditions noted are these: PTH 10 ug/Kg/d sc, once daily 2 months.
Setting [2] is: ORX + TE 1 mg/kg/d (control group of Dunnett's comparison).
Setting [3] is: ORX + TE 1 mg/kg/d sc alone, 8 weeks.

Take `C[C@]1(O)CC[C@H]2[C@@H]3CCC4=CC(=O)CCC4=C3C=C[C@@]21C` [Example R1881]: the EC50 in assay [1] (AR gene, read-out: LnCAP Gene Expression EC50 (nM) AR) worked out at 0.035 nM; in assay [1] (CLUSTERIN gene, read-out: LnCAP Gene Expression EC50 (nM) CLUSTERIN), 0.37 nM; in assay [1] (PSA gene, read-out: LnCAP Gene Expression EC50 (nM) PSA), 0.034 nM.
Turning to `CCCCCCC(=O)O[C@H]1CC[C@H]2[C@@H]3CCC4=CC(=O)CC[C@]4(C)[C@H]3CC[C@]12C` [TE, testosterone enanthate, reference compound], in the assay on ORX Wistar male rats (setting [2]), the “Prostate Weights, Abs(Dif) − LSD” value is given as −0.15 and the “Seminal Vesicle Wet Weights, Abs(Dif) − LSD” value was −0.52. In the assay on ORX Wistar male rats (setting [3]), the “Prostate Weight, % Sham” value worked out at 45.5 % Sham and the “SV Weight, % Sham” value amounted to 58.5 % Sham.
For the compound “PTH: PTH (1-38) (Zeneca (Cambridge Research Biochemicals)), given sc as an injection (SVSEIQLMHNLGKHLNSMERVEWLRKKLQDVHNFVALG; Parathyroid hormone; UniProt P01270 32-69, looked up, fragment) [reference compound]”, the “SV Weight, % Sham” value in the assay on Orx rats turned out to be 5.6 % Sham.
